In brackets after ≈: the same amount, converted by molar mass.
Assays:
Type in all cases: functional, cell-based
L1210 [1] = experiment: Concentration required to cause 50% inhibition against murine leukemia L1210 cell line; conditions: Mus musculus
CCRF-CEM = experiment: Concentration required to cause 50% inhibition against human CEM cell lines
T-24 [2] = experiment: Cytotoxicity of compound was evaluated by incorporation of [methyl-3H]thymidine into T24, a bladder carcinoma cell line, for 1 hr exposure; conditions: Homo sapiens, T-24, 1 h
MRC5CV1 [3] = experiment: Cytotoxicity of compound was evaluated by incorporation of [methyl-3H]thymidine into MRC5CV1, a control fibroblast cell line, for 1 hr exposure; conditions: Homo sapiens, MRC5CV1, 1 h
T-24 [4] = experiment: Cytotoxicity of compound was evaluated by incorporation of [methyl-3H]thymidine into T24, a bladder carcinoma cell line, continuous exposure; conditions: Homo sapiens
MRC5CV1 [5] = experiment: Cytotoxicity of compound was evaluated by incorporation of [methyl-3H]thymidine into MRC5CV1, a control fibroblast cell line, continuous exposure; conditions: Homo sapiens
L1210 [6] = experiment: Concentration required to cause 50% inhibition against murine leukemia L1210 cell line; 2-4 ug/mL; conditions: Mus musculus

Compound | IC50 (L1210 [1]) [µg/mL] | IC50 (L1210 [6]) [µg/mL] | other results
CC(C)C[C@H]1NC(=O)[C@H]2N=C(O[C@@H]2C)[C@H]2CSSC[C@@H](NC(=O)c3csc1n3)C1=N[C@H](C(=O)N[C@H](CC(C)C)c3nc(cs3)C(=O)N2)[C@@H](C)O1 [ULITHIACYCLAMIDE] | 0.35 (≈ 0.459 µM) | – | IC50 (CCRF-CEM): 0.01 µg/mL (≈ 0.0131 µM); IC50 (T-24 [2]): 0.15 µg/mL (≈ 0.197 µM); IC50 (MRC5CV1 [3]): 0.22 µg/mL (≈ 0.288 µM); IC50 (T-24 [4]): 0.1 µg/mL (≈ 0.131 µM); IC50 (MRC5CV1 [5]): 0.04 µg/mL (≈ 0.0524 µM)
CC[C@H](C)[C@@H]1NC(=O)c2csc(n2)[C@@H](C(C)C)NC(=O)[C@H]2N=C(O[C@@H]2C)[C@H]([C@@H](C)CC)NC(=O)c2csc(n2)[C@@H](C(C)C)NC(=O)[C@@H]2COC1=N2 [PATELLAMIDE A] | – | 2 (≈ 2.69 µM) | –
CC[C@H](C)[C@@H]1NC(=O)c2csc(n2)[C@@H](C)NC(=O)[C@H]2N=C(O[C@@H]2C)[C@H](C(C)C)NC(=O)c2csc(n2)[C@@H](Cc2ccccc2)NC(=O)[C@H]2N=C1O[C@@H]2C [PATELLAMIDE C] | – | 2 (≈ 2.62 µM) | –
CC[C@H](C)[C@@H]1NC(=O)c2csc(n2)[C@@H](C)NC(=O)[C@H]2N=C(O[C@@H]2C)[C@H](CC(C)C)NC(=O)c2csc(n2)[C@@H](Cc2ccccc2)NC(=O)[C@H]2N=C1O[C@@H]2C [PATELLAMIDE B] | – | 2 (≈ 2.57 µM) | –

Now from value to molecule, other results behind:

IC50 (L1210 [1]) [µg/mL] | Compound | IC50 (L1210 [6]) [µg/mL] | other results
> 10 | CC[C@@H](C)[C@H]1NC(=O)c2csc(n2)[C@H](C(C)C)NC(=O)[C@H]2N=C(O[C@@H]2C)[C@@H]2CCCN2C(=O)[C@H](Cc2ccccc2)NC(=O)c2csc1n2 [LISSOCLINAMIDE 1] | – | –
0.8 (≈ 1.08 µM) | CC(C)[C@@H]1NC(=O)[C@H]2N=C(O[C@@H]2C)[C@@H]2CCCN2C(=O)[C@H](Cc2ccccc2)NC(=O)c2csc(n2)[C@H](Cc2ccccc2)NC(=O)[C@H]2CSC1=N2 | – | –
> 10 | CC[C@@H](C)[C@H]1NC(=O)[C@H]2N=C(O[C@@H]2C)[C@@H]2CCCN2C(=O)[C@H](Cc2ccccc2)NC(=O)c2csc(n2)[C@H](C)NC(=O)C2CSC1=N2 [LISSOCLINAMIDE 3] | – | –
> 10 | CC[C@@H](C)[C@H]1NC(=O)[C@H]2N=C(O[C@@H]2C)[C@@H]2CCCN2C(=O)[C@H](Cc2ccccc2)NC(=O)c2csc(n2)[C@@H](C)NC(=O)C2CSC1=N2 [LISSOCLINAMIDE 2] | – | –

Reference: ChEMBL document CHEMBL1124500, “New cyclic peptides with cytotoxic activity from the ascidian Lissoclinum patella” (J Med Chem, 1989)
